Source: ChEMBL document CHEMBL5241114, “A comprehensive review of BET-targeting PROTACs for cancer therapy” (Bioorg Med Chem, 2022)
Values belong to the compound of their own block, whether it stands above or below them.

Key:
[1] = biological target: T1, Bromodomain-containing protein 4 (Homo sapiens, UniProt O60885); experiment: Induction of BRD4 degradation in human HD-MB03 cells at 100 nM measured at 72 hrs relative to control; assay type: cell-based
[2] = biological target: T1, Bromodomain-containing protein 4; experiment: Induction of BRD4 degradation in human MV4-11 cells measured after 12 hrs; assay type: cell-based
[3] = biological target: T1, Bromodomain-containing protein 4; experiment: Induction of BRD4 degradation in human MV4-11 cells measured after 24 hrs; assay type: cell-based
MV4-11 [4] = experiment: Cytotoxicity against human MV4-11 cells; assay type: functional, cell-based
MV4-11 [5] = experiment: Cytotoxicity against human MV4-11 cells measured after 96 hrs; assay type: functional, cell-based; settings: MV4-11, 96 h
[6] = biological target: T1, Bromodomain-containing protein 4; experiment: Induction of BRD4 degradation in human HD-MB03 cells measured after 12 hrs; assay type: cell-based
[7] = biological target: T1, Bromodomain-containing protein 4; experiment: Induction of BRD4 degradation in human HCT-116 cells assessed as downregulation of c-Myc expression; assay type: cell-based
SUD4 = experiment: Antiproliferative activity against human SU-DHL-4 cells assessed as reduction in cell viability measured after 48 hrs by MTT assay; assay type: functional
[8] = biological target: T1, Bromodomain-containing protein 4; experiment: Induction of BRD4 degradation in human HEK293T cells at 10 uM measured at 6 hrs relative to control; assay type: cell-based
[9] = biological target: T1, Bromodomain-containing protein 4; experiment: Induction of BRD4 degradation in human HAP1 cells; assay type: cell-based
[10] = biological target: T1, Bromodomain-containing protein 4; experiment: Induction of BRD4 degradation in human HEK293T cells; assay type: cell-based
[11] = biological target: T1, Bromodomain-containing protein 4; experiment: Induction of BRD4 degradation in human 231MFP cells; assay type: cell-based; settings: 231mfp
[12] = biological target: T1, Bromodomain-containing protein 4; experiment: Induction of BRD4 degradation in human SU-DHL-4 measured after 72 hrs relative to control; assay type: cell-based
[13] = biological target: T1, Bromodomain-containing protein 4; experiment: Induction of BRD4 degradation in human SU-DHL-4 measured after 72 hrs; assay type: cell-based
[14] = biological target: Protein fem-1 homolog B/Folliculin-interacting protein 1 (Homo sapiens, UniProt Q8TF40+Q9UK73); experiment: Inhibition of FEMIB/FNIP1 interaction in human HEK293T cells; assay type: cell-based
[15] = biological target: Folliculin-interacting protein 1 (Homo sapiens, UniProt Q8TF40); experiment: Inhibition of FNIP1 in human HEK293T cells; assay type: cell-based
[16] = biological target: T1, Bromodomain-containing protein 4; experiment: Induction of BRD4 degradation in human MDA-MB-468 cells at 0.5 uM measured at 48 hrs relative to control; assay type: cell-based
MDA-MB-231 = experiment: Antiproliferative activity against human MDA-MB-231 cells assessed as cell growth inhibition; assay type: functional
MDA-MB-468 = experiment: Antiproliferative activity against human MDA-MB-468 cells assessed as cell growth inhibition; assay type: functional

Chain of Folliculin-interacting protein 1 (Q8TF40 whole entry): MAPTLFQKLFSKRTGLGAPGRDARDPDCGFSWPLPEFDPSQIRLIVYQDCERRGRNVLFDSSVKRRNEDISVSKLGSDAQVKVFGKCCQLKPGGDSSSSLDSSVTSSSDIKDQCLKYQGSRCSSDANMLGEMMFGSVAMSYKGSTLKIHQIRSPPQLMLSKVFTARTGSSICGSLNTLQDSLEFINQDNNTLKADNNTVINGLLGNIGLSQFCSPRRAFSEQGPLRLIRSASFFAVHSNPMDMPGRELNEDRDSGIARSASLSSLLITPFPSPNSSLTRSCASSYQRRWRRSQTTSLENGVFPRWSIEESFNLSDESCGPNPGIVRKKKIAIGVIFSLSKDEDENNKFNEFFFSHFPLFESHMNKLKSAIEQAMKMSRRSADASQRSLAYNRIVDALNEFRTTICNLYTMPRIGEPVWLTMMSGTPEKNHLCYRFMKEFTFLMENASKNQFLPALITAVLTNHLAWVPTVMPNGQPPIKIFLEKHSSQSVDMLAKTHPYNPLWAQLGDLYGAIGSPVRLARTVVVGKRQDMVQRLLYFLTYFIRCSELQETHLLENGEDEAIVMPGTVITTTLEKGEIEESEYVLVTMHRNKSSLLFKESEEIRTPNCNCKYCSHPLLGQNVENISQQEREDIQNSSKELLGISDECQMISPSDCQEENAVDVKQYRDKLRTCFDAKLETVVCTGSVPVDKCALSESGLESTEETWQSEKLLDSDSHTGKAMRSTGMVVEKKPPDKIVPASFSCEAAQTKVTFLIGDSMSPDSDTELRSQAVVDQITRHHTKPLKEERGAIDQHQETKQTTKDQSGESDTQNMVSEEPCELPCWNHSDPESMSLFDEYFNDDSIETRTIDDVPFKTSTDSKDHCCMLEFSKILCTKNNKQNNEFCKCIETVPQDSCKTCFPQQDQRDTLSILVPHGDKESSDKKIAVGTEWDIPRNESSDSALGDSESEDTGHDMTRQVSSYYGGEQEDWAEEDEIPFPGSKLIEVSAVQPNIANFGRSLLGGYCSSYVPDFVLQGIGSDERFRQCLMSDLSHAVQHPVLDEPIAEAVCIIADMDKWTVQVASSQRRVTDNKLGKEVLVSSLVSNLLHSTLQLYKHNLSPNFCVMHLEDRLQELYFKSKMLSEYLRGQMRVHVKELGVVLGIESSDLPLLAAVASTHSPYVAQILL
Chain of Protein fem-1 homolog B/Folliculin-interacting protein 1 (Q8TF40 whole entry): as above
Chain of Protein fem-1 homolog B/Folliculin-interacting protein 1 (Q9UK73 whole entry): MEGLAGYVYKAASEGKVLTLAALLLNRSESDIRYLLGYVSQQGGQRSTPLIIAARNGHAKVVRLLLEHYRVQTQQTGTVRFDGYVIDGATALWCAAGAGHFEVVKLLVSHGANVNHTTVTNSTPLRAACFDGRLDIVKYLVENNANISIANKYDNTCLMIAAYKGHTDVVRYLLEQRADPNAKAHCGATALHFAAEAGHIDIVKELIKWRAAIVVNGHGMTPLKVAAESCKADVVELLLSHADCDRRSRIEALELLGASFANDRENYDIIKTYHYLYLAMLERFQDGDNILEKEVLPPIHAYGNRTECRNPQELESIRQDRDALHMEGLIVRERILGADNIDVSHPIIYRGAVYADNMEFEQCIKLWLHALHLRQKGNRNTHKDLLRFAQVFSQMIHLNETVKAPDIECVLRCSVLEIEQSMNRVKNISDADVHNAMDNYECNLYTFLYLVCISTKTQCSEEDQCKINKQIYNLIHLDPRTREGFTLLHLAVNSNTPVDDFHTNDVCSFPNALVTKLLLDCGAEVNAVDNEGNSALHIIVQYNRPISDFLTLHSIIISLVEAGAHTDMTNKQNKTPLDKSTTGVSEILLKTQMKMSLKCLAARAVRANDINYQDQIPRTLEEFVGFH

- Emax [8]: 94%
- DC50 [9]: 313 nM
- DC50 [10]: 250 nM
- DC50 [11]: 196 nM
SMILES: C#CCCCC(=O)N1CCOc2ccc(N(CCC#N)C(=O)CCl)cc21

- IC50 [14]: 2200 nM
- IC50 [15]: 670 nM
SMILES: N#CCCN(C(=O)CCl)c1ccc2c(c1)OCCO2

More lines, now with the values behind:

SMILES: Cc1sc2c(c1C)C(c1ccc(Cl)cc1)=N[C@@H](CC(=O)NCCCCCNC(=O)COc1ccc(C3CCC(=O)NC3=O)cc1)c1nnc(C)n1-2 (stereo not given in full)
- Emax [1]: 87%
- DC50 [2]: 0.87 nM
- DC50 [3]: 0.16 nM
- IC50 (MV4-11 [4]): 1.83 nM
- IC50 (MV4-11 [5]): 3 pM
- DC50 [6]: 24 nM

SMILES: COc1cc(C(=O)NCCOCCOCCOCCNC(=O)C[C@@H]2N=C(c3ccc(Cl)cc3)c3c(sc(C)c3C)-n3c(C)nnc32)ccc1NC(=O)[C@@H]1N[C@@H](CC(C)(C)C)[C@](C#N)(c2ccc(Cl)cc2F)[C@H]1c1cccc(Cl)c1F
- DC50 [7]: 36 nM
- GC50 (SUD4): 25.17 µM

SMILES: Cc1sc2c(c1C)C(c1ccc(Cl)cc1)=N[C@@H](CC(=O)NCCOCCOCCNC(=O)c1cccc(S(=O)(=O)Nc3ccc(C)c4c(C#N)c[nH]c34)c1)c1nnc(C)n1-2
- Emax [12]: 98%
- GC50 (SUD4): 4.64 µM
- DC50 [13]: 10.8 µM

SMILES: CCOC(=O)C[C@H](c1ccc(C)c(CN2C[C@H](C)Oc3ccccc3S2(=O)=O)c1)c1cc(OCCNC(=O)CNC(=O)C[C@H]2N=C(c3ccc(Cl)cc3)c3c(sc(C)c3C)-n3c(C)nnc32)c2c(c1)nnn2C
- Emax [16]: 80%
- GI50 (MDA-MB-231): 130 nM
- GI50 (MDA-MB-468): 280 nM
